Data: the OPERA property sets (Mansouri et al. 2018)

Conditions: for log10 BCF / log10 biotransformation half-life (days): fish

Row | SMILES | melting point [°C] | boiling point [°C] | log10 vapour pressure (mmHg) | also measured
1 | CC1=C(/C=C/C(C)=C/C=C/C(C)=C/C=C/C=C(C)/C=C/C=C(C)/C=C/C2=C(C)CCCC2(C)C)C(C)(C)CCC1 | 183 |  |  | 
2 | CCC/C=C/C=O |  | 146 |  | 
3 | FC(Cl)(Cl)C(F)(Cl)Cl | 26 | 93 | 1.7 | ready biodegradability: not readily biodegradable; log10 BCF: 1.77
4 | CCCCCCCCCCCCSP(SCCCCCCCCCCCC)SCCCCCCCCCCCC |  |  |  | ready biodegradability: not readily biodegradable
5 | CN(C(=O)C(Cl)Cl)c1ccc(O)cc1 | 175 |  |  | 
6 | OCC=Cc1ccccc1 | 33 |  | -1.62 | ready biodegradability: readily biodegradable
7 | BrCCCCOc1ccccc1 | 41 |  |  | 
8 | c1ccc2c(c1)cc1ccc3c4ccccc4cc4ccc2c1c43 | 317 |  |  | 
9 | COC(=O)c1ccccc1C |  | 215 |  | 
10 | CN1CCN(CCCN2c3ccccc3Sc3ccc(C(F)(F)F)cc32)CC1.Cl.Cl | 240 |  |  | 
11 | COc1ccc(C(=O)c2csc(S(N)(=O)=O)c2)cc1 | 174 |  |  | 
12 | CCCCCCC | -90.6 | 98.5 | 1.66 | log10 Koa: 2.95; log10 biodegradation half-life (days): 0.845; ready biodegradability: readily biodegradable
13 | CC(=O)Nc1ccc(Cl)cc1 | 179 | 333 |  | 
14 | O=[N+]([O-])c1c(Cl)c(Cl)cc(Cl)c1Cl | 99.5 | 304 | -2.74 | log10 Koc (L/kg): 4.05; log10 BCF: 3.23; log10 biotransformation half-life (days): 0.49
15 | c1ccc2cnncc2c1 | 90.5 | 316 |  | 
16 | CC=CC#N |  | 120 | 1.5 | 
17 | c1ccc2nncnc2c1 | 75.8 | 238 |  | 
18 | C1=CCCCC1 | -104 | 82.9 | 1.95 | log10 Henry constant (atm·m³/mol): -1.34; log10 Koa: 2.83; ready biodegradability: not readily biodegradable
19 | CC(C(O)c1ccc(O)cc1)N1CCC(Cc2ccccc2)CC1 (configuration not stated) | 114 |  |  | 
20 | C=CC/C=C/C/C=C/C/C=C/C |  |  |  | ready biodegradability: not readily biodegradable
21 | O=C(O)c1cccs1 | 130 |  |  | 
22 | Cc1cc(O)ccc1Br | 63.5 |  |  | 

Row | SMILES | melting point [°C] | boiling point [°C] | log10 vapour pressure (mmHg) | also measured
23 | CCOC(C)=O | -83.6 | 77.1 | 1.97 | log10 Henry constant (atm·m³/mol): -3.87; log10 Koa: 2.7; ready biodegradability: readily biodegradable
24 | CC(C)CC(=O)O | -29.3 | 176 | -0.356 | log10 Henry constant (atm·m³/mol): -6.08; ready biodegradability: readily biodegradable
25 | CCCCC(N)=O | 106 | 225 |  | 
26 | CC1(C)OC(=O)CC1CC(=O)O (configuration not stated) | 90 |  |  | 
27 | Oc1c(Cl)cc(Cl)c2cccnc12 | 180 |  |  | 
28 | CCCCCCCCCCCI |  |  | -2.35 | 
29 | CC(C)C(O)C(C)C |  | 139 | 0.477 | 
30 | CCCCCCCC/C=C\CCCCCCCC(=O)OCC(COC(=O)CCCCCCC/C=C\CCCCCCCC)OC(=O)CCCCCCC/C=C\CCCCCCCC |  |  |  | ready biodegradability: readily biodegradable
31 | CCC(C)(O)C#CC(C)(O)CC (configuration not stated) |  | 135 |  | 
32 | CC(C)CCOCc1ccccc1 |  | 237 |  | 
33 | CC(C)=CCOc1c2occc2cc2ccc(=O)oc12 | 102 |  |  | 
34 | CCOC(=O)C=CCC(=O)OCC |  | 237 |  | 
35 | CNc1ccc(Cl)cc1 |  | 240 |  | 
36 | Cc1cc(C)cc(N)c1 | 9.8 | 220 |  | ready biodegradability: not readily biodegradable
37 | Cc1ccc([N+](=O)[O-])c(O)c1 | 53 |  | -1.7 | log10 Henry constant (atm·m³/mol): -4.89; ready biodegradability: not readily biodegradable
38 | OCCSSCCO | 26 |  |  | 
39 | Cc1ccccc1[N+](=O)[O-] | -10 | 222 | -0.726 | log10 Henry constant (atm·m³/mol): -4.9; ready biodegradability: not readily biodegradable; log10 BCF: 1.26; log10 biotransformation half-life (days): -0.48
40 | COc1ccc(C(=O)c2coc(S(N)(=O)=O)c2)cc1 | 181 |  |  | 
41 | C=C(Br)CBr |  | 141 | 0.88 | 
42 | O=C(Cl)/C=C/C(=O)Cl |  | 159 | 0.316 | 
43 | NS(=O)(=O)c1ccc(SCCCO)c(Cl)c1 | 127 |  |  | 
